Measured values published in patent EP1457483A1, “Cationic lipids with serine backbone” (Ruhr-Universität Bochum, priority 2003, dated 2004).

Tested on: COS-7 cells
Assay: Automated lipofection screening: GFP-luciferase reporter gene transfer (luciferase activity per protein content)
Format: cell-based, African green monkey
Details: for times higher activity in only one of the helper lipid combinations: best combination against the other combinations; for Maximum transfection efficiency, MW (mean value), Helper lipid: DOPE / Maximum transfection efficiency, MW (mean value), Helper lipid: CHOL / Maximum transfection efficiency, MW (mean value), Helper lipid: without: pEGFPLuc plasmid, point is thousands separator; for Maximum transfection efficiency, MW (mean value), Helper lipid: DOPE: cationic/helper lipid 1:0.5 with DOPE; for Maximum transfection efficiency, MW (mean value), Helper lipid: DOPE / Maximum transfection efficiency, MW (mean value), Helper lipid: CHOL: at the LDR giving the maximum; for Maximum transfection efficiency, MW (mean value), Helper lipid: CHOL: cationic/helper lipid 1:0.5 with cholesterol; for Maximum transfection efficiency, MW (mean value), Helper lipid: without: no helper lipid, at the LDR (1:1-15:1) giving the maximum
Experimental: Screening the combinatorial lipid library for lipofection properties: Goal of this first step was to compare transfection efficiency of these structurally related cationic lipids with systematically modified hydrocarbon chain compositions for the development of suitable lipofection reagents and protocols and to study the relationship between structure and transfection efficiency of this new class of cationic lipids for gene transfer. All lipids (MS-1 to MS-50, table 1) were tested using a standard protocol: From each lipid, twenty four different lipoplexes were formed containing either no helper lipid or the helper lipids DOPE and CHOL at molar amounts (1:0.5), respectively, using eight different lipid:DNA-charge ratios (LDR) from 1:1 - 15:1, resulting in a lipofection profile for each lipid. The COS-7 cell-line was used for this lipofection study since COS-7 is easy to transfect and differences between the lipids are easy to identify.
Cell culture: SV40 transformed African green monkey kidney cell line COS-7 (ATCC CRL-1651) was routinely passaged in DMEM (GIBCO BRL, Karlsruhe, Germany), respectively, supplemented with 1% L-glutamin solution (100x), 1% Penicillin/Streptomycin solution (100x) (GIBCO BRL, Karlsruhe, Germany), and 10% FCS (BioWhittaker, Verviers, Belgium) at 37°C with 5% CO2 in humidified atmosphere. For the screening cells were maintained in 96-well culture plates (Greiner, Frickenhausen, Germany) in 100 µl DMEM, 10 % FCS, 1 % Penicillin-streptomycin in a humidified atmosphere at 37 °C/5 % CO2. 24 h prior to transfection, the cells were seeded into the microtiter plate at 10,000 cells per well to reach a confluency of 50 % at the time of transfection. Dendritic cells: Dendritic cells (DC) were derived from highly purified circulating CD14(+) monocytes: In a first step, peripheral blood mononuclear leukocytes (PBL) from healthy control persons were isolated by Ficoll-Paque (Pharmacia Biotech AB, Uppsala, Sweden) density centrifugation. The following immunomagnetic purification of the monocytes from PBL was performed using CD14 Microbeads and MiniMACS high gradient magnetic separation columns (Miltenyi Biotech, Bergisch Gladbach, Germany) according to manufacturer's instructions. Isolated monocytes (5 x 10^5/well) were cultured in RPMI supplemented with 10 % FCS, or serum-free Macrophage-SFM medium (GIBCO BRL, Karlsruhe, Germany) supplemented with human recombinant GM-CSF (0.05µg/ml) and IL-4 (0.025µg/ml) (PromoCell, Heidelberg, Germany) in 6-well plates. Aliquots of the cells were reanalyzed by FACS with anti-CD14 mAbs (Pharmingen, San Diego, CA). After 5-6 days non-adherent cells were collected and purity of DCs was determined by FACS analysis using a FACSort flow cytometer (Becton Dickinson, Mountain View, CA) and the CellQuest software for data processing as recently described (Jantscheff, P. et al., J. Immunol. Methods 163(1):91-7 (1993)).

## CCCCCCCCCCCCCCCC[N+](C)(CCCCCCCCCCCCCCCC)[C@@H](CO)C(=O)NCCN [MS-28]
  times higher activity in only one of the helper lipid combinations: 2.5 - 11.5 times

## CCCCCCCCCCCCCCCCCC[N+](C)(CCCCCCCCCCCCCCCCCC)[C@@H](CO)C(=O)NCCN [MS-29]
  times higher activity in only one of the helper lipid combinations: 2.5 - 11.5 times

## CCCCCCCCCCCCCCCC[N+](C)(CCCCCCCCCCCCCCCC)[C@@H](CO)C(=O)NCCCN [MS-33]
  times higher activity in only one of the helper lipid combinations: 2.5 - 11.5 times

## CCCCCCCCCCCCN(CCCCCCCCCCCC)[C@@H](CO)C(=O)NCCN [compound 1]
  Maximum transfection efficiency, MW (mean value), Helper lipid: DOPE: 172.116 RLU
  Maximum transfection efficiency, MW (mean value), Helper lipid: CHOL: 264.581 RLU
  Maximum transfection efficiency, MW (mean value), Helper lipid: without: 211.937 RLU

## CCCCCCCCCCCCCCN(CCCCCCCCCCCCCC)[C@@H](CO)C(=O)NCCN [compound 2]
  Maximum transfection efficiency, MW (mean value), Helper lipid: DOPE: 73.117 RLU
  Maximum transfection efficiency, MW (mean value), Helper lipid: CHOL: 297.074 RLU
  Maximum transfection efficiency, MW (mean value), Helper lipid: without: 362.300 RLU

## CCCCCCCCCCCCCCCCN(CCCCCCCCCCCCCCCC)[C@@H](CO)C(=O)NCCN [compound 3]
  Maximum transfection efficiency, MW (mean value), Helper lipid: DOPE: 18.255 RLU
  Maximum transfection efficiency, MW (mean value), Helper lipid: CHOL: 66.096 RLU
  Maximum transfection efficiency, MW (mean value), Helper lipid: without: 4.049 RLU

## CCCCCCCCCCCCCCCCCCN(CCCCCCCCCCCCCCCCCC)[C@@H](CO)C(=O)NCCN [compound 4]
  Maximum transfection efficiency, MW (mean value), Helper lipid: DOPE: 4.695 RLU
  Maximum transfection efficiency, MW (mean value), Helper lipid: CHOL: 131.981 RLU
  Maximum transfection efficiency, MW (mean value), Helper lipid: without: 2.827 RLU

## CCCCCCCC/C=C\CCCCCCCCN(CCCCCCCC/C=C\CCCCCCCC)[C@@H](CO)C(=O)NCCN [compound 5]
  Maximum transfection efficiency, MW (mean value), Helper lipid: DOPE: 22.324 RLU
  Maximum transfection efficiency, MW (mean value), Helper lipid: CHOL: 7.344 RLU
  Maximum transfection efficiency, MW (mean value), Helper lipid: without: 7.395 RLU

## CCCCCCCCCCCCN(CCCCCCCCCCCC)[C@@H](CO)C(=O)NCCCN [compound 6]
  Maximum transfection efficiency, MW (mean value), Helper lipid: DOPE: 6.392 RLU
  Maximum transfection efficiency, MW (mean value), Helper lipid: CHOL: 583 RLU
  Maximum transfection efficiency, MW (mean value), Helper lipid: without: 944 RLU

## CCCCCCCCCCCCCCN(CCCCCCCCCCCCCC)[C@@H](CO)C(=O)NCCCN [compound 7]
  Maximum transfection efficiency, MW (mean value), Helper lipid: DOPE: 131.970 RLU
  Maximum transfection efficiency, MW (mean value), Helper lipid: CHOL: 464.342 RLU
  Maximum transfection efficiency, MW (mean value), Helper lipid: without: 217.062 RLU

## CCCCCCCCCCCCCCCCN(CCCCCCCCCCCCCCCC)[C@@H](CO)C(=O)NCCCN [compound 8]
  Maximum transfection efficiency, MW (mean value), Helper lipid: DOPE: 38.086 RLU
  Maximum transfection efficiency, MW (mean value), Helper lipid: CHOL: 22.428 RLU
  Maximum transfection efficiency, MW (mean value), Helper lipid: without: 6.244 RLU

## CCCCCCCCCCCCCCCCCCN(CCCCCCCCCCCCCCCCCC)[C@@H](CO)C(=O)NCCCN [compound 9]
  Maximum transfection efficiency, MW (mean value), Helper lipid: DOPE: 10.033 RLU
  Maximum transfection efficiency, MW (mean value), Helper lipid: CHOL: 76.850 RLU
  Maximum transfection efficiency, MW (mean value), Helper lipid: without: 2.183 RLU

## CCCCCCCC/C=C\CCCCCCCCN(CCCCCCCC/C=C\CCCCCCCC)[C@@H](CO)C(=O)NCCCN [compound 10]
  Maximum transfection efficiency, MW (mean value), Helper lipid: DOPE: 92.769 RLU
  Maximum transfection efficiency, MW (mean value), Helper lipid: CHOL: 28.835 RLU
  Maximum transfection efficiency, MW (mean value), Helper lipid: without: 13.461 RLU

## CCCCCCCCCCCCN(CCCCCCCCCCCC)[C@@H](CO)C(=O)NCCCCN [compound 11]
  Maximum transfection efficiency, MW (mean value), Helper lipid: DOPE: 2.621 RLU
  Maximum transfection efficiency, MW (mean value), Helper lipid: CHOL: 327 RLU
  Maximum transfection efficiency, MW (mean value), Helper lipid: without: 293 RLU

## CCCCCCCCCCCCCCN(CCCCCCCCCCCCCC)[C@@H](CO)C(=O)NCCCCN [compound 12]
  Maximum transfection efficiency, MW (mean value), Helper lipid: DOPE: 167.970 RLU
  Maximum transfection efficiency, MW (mean value), Helper lipid: CHOL: 274.483 RLU
  Maximum transfection efficiency, MW (mean value), Helper lipid: without: 440.931 RLU
